Assay results from patent US12673921B2, “Substituted fluorine-containing imidazole salt compound, preparation method therefor, pharmaceutical composition thereof and use thereof” (XIAMEN VIVOHEALTHS TECHNOLOGY CO., LTD., priority 2019, dated 2026).
“Also recorded” adds a separate entry of the source.

Key:
[1] = test system: AMPK; assay: AMPK activity assay at cell level (western blot of p-AMPKα and p-ACC in MEFs); format: cell-based, mouse; conditions: MEF cells, compound 10 nM, 2 h; multiple of the ratio relative to positive control AICAR (3 mM); band brightness by Image J
Experimental: The ability of compounds to activate AMPK in mouse embryonic fibroblasts (MEFs) was determined, which could be specifically carried out by detecting the phosphorylation level (p-AMPKα) of threonine at the 172nd position of AMPK and the phosphorylation level (p-ACC) of serine at the 79th position of the susbtrate ACC1/ACC2 of AMPK (FIG. 1 and Table I) by western blot.
The specific method was as follows: • (1) MEFs with loxP insertion sequences or of wild-type were plated in a 6-well plate and cultured in DMEM containing 10% serum. If a gene needed to be knocked out at this time, when the density of the corresponding MEFs with loxP insertion sequences reached about 30%, an adenovirus capable of expressing cre should be added to the culture well followed by further culture for more than 24 h; • (2) When the cell density was close to 90%, the cells were provided with fresh DMEM, at the same time, a compound (final concentration 10 nM) was added to the cells, followed by culture for 2 h, with an equal volume of DMSO as the negative control, and the cells treated with the addition of AICAR (3 mM) as the positive control; • (3) After sucking up the culture solution, the cells were lysed with 200 μL of a cell lysate (its formulation was given below), then the cells were scraped from the culture dish, ultrasonicated, and subjected to low temperature centrifugation at 20000 g for 10 min; • (4) The supernatant and an equal volume of 2*SDS solution (its formulation was given below) were mixed, and subjected to SDS-PAGE in a concentration of 8%, then the protein was transferred to PVDF membrane; each PVDF membrane was blocked with 25 mL of skim milk for 1 h, and then rinsed with TBST buffer (its formulation was given below) 3 times for 10 min each time; • (5) AMPKα subunit primary antibody (Cell Signaling Technology, #2532), primary antibody of phosphothreonine at the 172nd position of AMPK (Cell Signaling Technology, #2535), ACC primary antibody (Cell Signaling Technology, #3662), or primary antibody of phosphoserine at the 79th position of ACC (Cell Signaling Technology, #3661) was diluted in a ratio of 1:1000 with a primary antibody dilution (its formulation was given below), reacted with the PVDF membrane at room temperature for 12 h, and then rinsed 3 times with TBST buffer; • (6) A 1:1000 dilution of HRP-conjugated goat anti-rabbit secondary antibody (Jackson ImmunoResearch, 111-035-003) was added, reacted at room temperature for 1 h, and then rinsed 3 times with TBST buffer; • (7) The PVDF membrane was dried, reacted in an ECL mixture (WesternBright ECL HRP substrate, Advansta) and subjected to exposure with medical X-ray, developed, finally rinsed, dried, and then scanned to obtain data related to AMPK activation.
The formulations of reagents used were: • Cell lysate: 20 mM Tris-base, pH 7.5, 150 mM NaCl, 1 mM EDTA, 1 mM EGTA, 2.5 mM Sodium pyrophosphate, 1 mM β-glycerolphosphate, 1% Triton X-100 (v/v); • 2*SDS solution: 20% Glycerol (v/v), 4% SDS (m/v), 10% β-mecaptoethanol (v/v), 0.01% Bromophenol blue (m/v); • TBST buffer: 4.84% Tris-base (m/v), 8% NaCl (m/v), 0.1% Tween-20 (v/v); • Primary antibody dilution: TBST buffer containing 5% BSA (v/v).

[2] = test system: high-fat-fed obese mice; assay: In vivo efficacy in high-fat-fed obese mice (body weight, liver slice); set-up: species or system mouse; conditions: 90 days
Text: […]

[3] = test system: AMPK; assay: AMPK activation in liver of treated high-fat-fed mice by western blot; format: in vivo, mouse; conditions: 90 days after s.c. administration
Text: […]

[4] = test system: C57BL/6J male mice; assay: Sugar tolerance test of mice (ip-GTT); format: in vivo, mouse; conditions: intragastric 0.2, 2 mg/kg, glucose 1 g/kg i.p. after 2 h

SMILES: Cc1n(CCCCCCCCCCCC(F)(F)C(F)(F)C(F)(F)C(F)(F)C(F)(F)F)cc[n+]1Cc1c(Cl)cccc1Cl.[Cl-] [IB-33]
- Degree of AMPK activation, p-ACC/ACC [1]: 0.94
- Degree of AMPK activation, p-AMPKα/AMPK [1]: 0.54
- body weight ([2]; s.c. 0.05, 0.15, 0.3 mg/kg once every two days): significantly reduce the body weight; also recorded: effective in reducing body weight
- fat accumulation in the liver ([2]; s.c., HE stained liver slice): improve the fat accumulation level in the liver; also recorded: effective in reducing fat accumulation in the liver
- AMPK activation in the mice (p-AMPK Thr172, p-ACC Ser79 by western blot) [3]: effectively activate AMPK
- blood sugar in sugar tolerance test (ip-GTT) [4]: significantly lower blood sugar; also recorded: effective in lowering blood sugar
